Literature values, collected in US20090026122A1, “BIOCOMPATIBLE SOLID-PHASE MICROEXTRACTION COATINGS AND METHODS FOR THEIR PREPARATION” (Janusz, priority 2002, published 2009).

System: plasma proteins
Conditions: previously published values

## CN(C)C(=O)C(CCN1CCC(O)(c2ccc(Cl)cc2)CC1)(c1ccccc1)c1ccccc1 [Loperamide, loperamide]
  Plasma Protein Binding % Literature Values (range): 95-97%
